The values below come from US5418236A, “Anxiolytic aroyl piperidinyl and piperazinylacyl pyrroles” (Ortho Pharmaceutical Corporation, priority 1993, dated 1995).

Where two headings read alike, the source gives them in different places.

For one experiment, the system named is α1 receptor. Put plainly: binding to the α1 receptor. Particulars: for inhibition in binding to the α1 receptor: 1 μM.
Another experiment has as its target T1, 5-HT1A receptor (Rattus norvegicus, UniProt P19327).
T1 construct: P2 fraction (synaptosomal membranes) from the cerebral cortex of male, Wistar rats; from tissue; host or cells: cerebral cortex of male Wistar rats, P2 fraction (synaptosomal membranes)
T1 sequence (P19327 1-422): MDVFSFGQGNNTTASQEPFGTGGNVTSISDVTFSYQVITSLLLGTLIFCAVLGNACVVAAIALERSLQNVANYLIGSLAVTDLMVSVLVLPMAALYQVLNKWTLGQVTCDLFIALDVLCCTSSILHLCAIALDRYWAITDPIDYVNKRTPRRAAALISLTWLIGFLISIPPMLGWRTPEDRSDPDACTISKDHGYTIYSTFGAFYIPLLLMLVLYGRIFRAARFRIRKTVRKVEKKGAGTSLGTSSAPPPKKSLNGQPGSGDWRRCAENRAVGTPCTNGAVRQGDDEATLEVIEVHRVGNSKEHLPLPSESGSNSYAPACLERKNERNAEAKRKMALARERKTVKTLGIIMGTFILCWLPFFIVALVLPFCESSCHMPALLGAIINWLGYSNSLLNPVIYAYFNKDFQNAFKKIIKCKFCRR
Put plainly: 5-HT1A assay (competitive binding, 3H-8-hydroxy-DPAT, cerebral cortex P2 fraction). Set-up: species or system male, Wistar rats. Here is the method: The 5-HT1A assay used a P2 fraction (synaptosomal membranes) from the cerebral cortex of male, Wistar rats. The ligand ^3 H-8-hydroxy-DPAT was used in competitive binding experiments at a concentration of 3 nM, and 1 mM serotonin as a blank determinant. Incubation was in 3 mM potassium phosphate buffer for 20 min at 25° C.
The data from each assay were analyzed by calculating the percent inhibition of the binding of the tritiated ligands by given concentrations of the test compound. Ki values, where given, were obtained from the logit analysis of concentration-inhibition curves.

The next experiment has as its system Male rats. In words: anxiolytic activity: release of behavior suppressed by punishment (Vogel conflict test). Format: in vivo. Here is the method:
The anxiolytic activity of selected compounds of the invention was assessed by determining their ability to release (disinhibit) behavior that had been suppressed by punishment (Vogel, J. R. et al. Psychopharmacology 1971, 21, 1). Male rats were deprived of water for 48 hours and were deprived of food for 24 hours prior to testing. After the first 24 hours of water deprivation, they were placed in the conflict chamber for a training period; wherein, they were allowed 200 unpunished licks from a bottle containing tap water. The experiment was run the next day. At the expected time of peak activity, the animals were placed in the chamber and allowed access to tap water. […] Their first lick initiates a 3-min test session. Subsequently,every 20th lick was punished by a 0.2-s shock delivered via the stainless-steel drinking-tube. Vehicle-treated control animals generally were willing to accept a median number of 3 to 8 shocks per test session. […] The Wilcoxon rank-sum test (Mann-WhitneyU-test) was used to test for an increase (p<0.05, 1-tailed) in the median number of shocks in drug-treated groups, compared to a concurrently run vehicle-treated group. The biological assay is considered to be valid if the effects of a known anxiolytic (positive control) are detected, within the same experiment. […]

Experiment [1] addresses D2 receptor (Rattus norvegicus, UniProt P61169). Put plainly: binding to the D2 receptor. The settings on record: 1 μM.
In another experiment the target is 5-HT2 receptor (Rattus norvegicus, UniProt P14842). In words: binding to the 5-HT2 receptor. The settings on record: 1 μM.
5-HT2 receptor, sequence (P14842 whole entry): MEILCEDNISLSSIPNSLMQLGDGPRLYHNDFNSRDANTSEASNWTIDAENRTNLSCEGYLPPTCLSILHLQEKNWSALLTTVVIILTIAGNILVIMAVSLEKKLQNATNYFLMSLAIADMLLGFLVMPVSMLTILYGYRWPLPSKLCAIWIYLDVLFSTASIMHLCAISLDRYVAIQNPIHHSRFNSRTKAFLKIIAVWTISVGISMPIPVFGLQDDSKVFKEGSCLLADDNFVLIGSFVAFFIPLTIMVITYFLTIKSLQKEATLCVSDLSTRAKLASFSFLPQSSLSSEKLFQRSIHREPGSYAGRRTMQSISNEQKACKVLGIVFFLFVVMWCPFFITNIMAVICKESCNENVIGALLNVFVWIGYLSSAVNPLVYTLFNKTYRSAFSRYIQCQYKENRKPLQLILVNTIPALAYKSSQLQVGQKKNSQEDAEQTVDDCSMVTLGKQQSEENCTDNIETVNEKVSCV
The target in experiment [2] is D2 receptor (Homo sapiens, UniProt P14416). Particulars: background statement; cited from earlier work.
D2 receptor (Homo sapiens, UniProt P14416), sequence (P14416 whole entry): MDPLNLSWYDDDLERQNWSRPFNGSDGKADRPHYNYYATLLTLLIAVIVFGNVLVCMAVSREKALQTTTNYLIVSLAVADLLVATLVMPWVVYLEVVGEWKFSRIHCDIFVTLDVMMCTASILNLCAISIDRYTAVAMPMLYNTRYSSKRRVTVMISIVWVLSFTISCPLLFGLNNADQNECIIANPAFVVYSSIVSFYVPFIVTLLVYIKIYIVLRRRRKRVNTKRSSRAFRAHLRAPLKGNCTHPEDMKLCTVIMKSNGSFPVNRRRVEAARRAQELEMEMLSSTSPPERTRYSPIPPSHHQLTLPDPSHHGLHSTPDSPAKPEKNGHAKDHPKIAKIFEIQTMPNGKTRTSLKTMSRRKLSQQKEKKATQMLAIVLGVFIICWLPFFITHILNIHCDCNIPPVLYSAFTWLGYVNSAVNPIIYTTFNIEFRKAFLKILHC
The mark [3] stands for this setting: 3H-8-hydroxy-DPAT 3 nM, 20 min, 25° C., rat cerebral cortex P2 fraction, read-out: Ki (5HT1A).
The mark [4] stands for this setting: 3H-8-hydroxy-DPAT 3 nM, 20 min, 25° C., rat cerebral cortex P2 fraction.

D2 receptor (Rattus norvegicus, UniProt P61169), sequence (P61169 whole entry): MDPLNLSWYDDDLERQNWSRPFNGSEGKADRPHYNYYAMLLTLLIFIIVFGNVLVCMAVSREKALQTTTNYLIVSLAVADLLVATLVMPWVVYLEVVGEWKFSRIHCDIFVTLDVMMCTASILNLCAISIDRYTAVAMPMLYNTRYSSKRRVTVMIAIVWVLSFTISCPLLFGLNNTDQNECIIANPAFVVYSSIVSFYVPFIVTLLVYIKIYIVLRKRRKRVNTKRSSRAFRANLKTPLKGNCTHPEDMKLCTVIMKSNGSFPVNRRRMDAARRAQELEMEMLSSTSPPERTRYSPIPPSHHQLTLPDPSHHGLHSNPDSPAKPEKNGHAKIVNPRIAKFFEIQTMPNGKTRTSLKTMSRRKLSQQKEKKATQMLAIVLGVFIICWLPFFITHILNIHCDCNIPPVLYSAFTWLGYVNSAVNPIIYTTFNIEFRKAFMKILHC

By Ki is commonly meant a measure of affinity in units of concentration, obtained from inhibition or displacement. `Cn1cc(C(=O)CN2CCN(c3ncccn3)CC2)cc1C(=O)c1ccc([N+](=O)[O-])cc1` [Example 5, 1-[1-Methyl-5-(4-nitrobenzoyl)-1H-pyrrol-3-yl]-2-[4-(2-pyrimidinyl)-1-piperazinyl]ethanone]: in the experiment with α1 receptor, the “inhibition in binding to the α1 receptor” value is “no inhibition”. Also, the Ki on 5-HT1A receptor (setting [3]) worked out at 7.7 nM. The compound further showed a change in responding in the experiment on Male rats (5 mg/kg IP) of 240%. At D2 receptor [1], the “inhibition in binding to the D2 receptor” value is recorded as “no inhibition”. Further, the “inhibition in binding to the 5-HT2 receptor” value on 5-HT2 receptor was “no inhibition”.

The inhibition is the percentage by which the read-out fell short of the control. Low readings indicate little suppression, high ones strong suppression. `Cc1c(C(=O)CN2CCN(c3ncccn3)CC2)c(C)n(C)c1C(=O)c1ccc(Cl)cc1` [Example 6-1] gave an inhibition at 1 µM at 5-HT1A receptor (setting [4]) of 24%.

Regarding `Cn1cc(C(=O)CN2CCN(c3ccccn3)CC2)cc1C(=O)c1ccc(Cl)cc1` [Example 6-2], at 5-HT1A receptor (setting [4]), 1 µM produced 94% inhibition.

Consider `CC(C)Oc1ccccc1N1CCN(CC(=O)c2cc(C(=O)c3ccccc3Cl)n(C)c2)CC1` [Example 6-3], for which the inhibition at 1 µM on 5-HT1A receptor (setting [4]) stood at 83%.

In the case of `Cn1cc(C(=O)CN2CCN(c3ncccn3)CC2)cc1C(=O)c1ccc(F)cc1` [Example 6-4], the inhibition at 1 µM on 5-HT1A receptor (setting [4]) is 91%.

On 5-HT1A receptor (setting [4]), `Cn1cc(C(=O)CN2CCN(c3cccc4ccccc34)CC2)cc1C(=O)c1ccc(Cl)cc1` [Example 6-5] registered an inhibition at 1 µM of 67%.

On to `Cc1c(C(=O)CCCCN2CCN(c3ncccn3)CC2)c(C)n(C)c1C(=O)c1ccc(Cl)cc1` [Example 6-6], for which the inhibitory constant (Ki) at 5-HT1A receptor (setting [3]) amounted to 6 nM.

Turning to `Cl.Cn1cc(C(=O)CN2CCC(O)(c3ccc(Cl)cc3)CC2)cc1C(=O)c1ccccc1Cl` [Example 7, 1-[5-(2-Chlorobenzoyl)-1-methyl-1H-pyrrol-3-yl]-2-[4-(4-chlorophenyl)-4-hydroxy-1-piperidinyl]ethanone Hydrochloride], the “inhibition in binding to the α1 receptor” value in the experiment with α1 receptor is reported as “no inhibition”. This compound displayed a Ki at 5-HT1A receptor of 15 nM. In the experiment with Male rats (10 mg/kg IP), this compound displayed a change in responding of 180%. Further, the “inhibition in binding to the D2 receptor” value at D2 receptor [1] is on record as “no inhibition”. Besides, the “inhibition in binding to the 5-HT2 receptor” value at 5-HT2 receptor is listed as “no inhibition”.

With `Cn1cc(C(=O)CN2CCC(c3ccccc3)CC2)cc1C(=O)c1ccc(Cl)cc1` [Example 8, 1-[5-(4-chlorobenzoyl)-1-methyl-1H-pyrrol-3-yl]-2-(4-phenylpiperidinyl)-ethanone], at 5-HT1A receptor (setting [4]), the inhibition at 1 µM was found to be 69%.

Regarding `COc1cccc(OC)c1OCCNCC1COc2ccccc2O1` (stereo not drawn) [WB4101, reference compound], the inhibitory constant (Ki) at 5-HT1A receptor (setting [3]) was found to be 0.32 nM.

In the case of `O=C1CC2(CCCC2)CC(=O)N1CCCCN1CCN(c2ncccn2)CC1` [buspirone], the inhibition constant Ki on α1 receptor was 138 nM. Moreover, the “binding to the D2 receptor” value at D2 receptor [2] is listed as “binds to the D2 receptor”.

As for `Cc1ccc(N(CC2=NCCN2)c2cccc(O)c2)cc1` [phentolamine, reference compound], the inhibition constant Ki at 5-HT1A receptor was determined as 59 nM.
